Test results taken from paper PMC10891143, “Quantitative live cell imaging of a tauopathy model enables the identification of a polypharmacological drug candidate that restores physiological microtubule interaction” (Nature Communications, 2024).

Columns and labels:
[1] = molecular target: T1, Tau (recombinant human tau, Tau441wt) (Homo sapiens, UniProt P10636); assay: heparin-induced aggregation, ultracentrifugation sedimentation assay; format: biochemical; conditions: 20 µM PHOX15 (significant, p = 0.0494), 24 h, 37 °C, pH 7.4, 200 µg/ml heparin, 1% DMSO
T1 construct: gene MAPT; full-length Tau441, pET-3d, E. coli BL21(DE3)pLysS; anion exchange and phosphocellulose chromatography
T1 sequence (P10636 1-441 isoform P10636-8): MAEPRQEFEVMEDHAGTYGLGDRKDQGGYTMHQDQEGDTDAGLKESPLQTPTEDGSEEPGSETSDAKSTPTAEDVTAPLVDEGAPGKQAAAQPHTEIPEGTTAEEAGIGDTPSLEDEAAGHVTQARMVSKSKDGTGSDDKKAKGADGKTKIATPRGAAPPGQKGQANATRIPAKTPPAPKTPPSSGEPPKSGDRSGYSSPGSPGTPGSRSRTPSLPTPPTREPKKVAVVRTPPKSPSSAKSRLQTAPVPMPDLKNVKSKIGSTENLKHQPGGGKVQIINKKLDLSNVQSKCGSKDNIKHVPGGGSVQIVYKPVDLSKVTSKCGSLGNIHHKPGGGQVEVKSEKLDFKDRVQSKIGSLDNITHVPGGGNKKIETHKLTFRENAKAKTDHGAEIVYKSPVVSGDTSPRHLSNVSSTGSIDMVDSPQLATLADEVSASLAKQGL

[2] = molecular target: T2, Tau (recombinant human tau, Tau441wt) (Homo sapiens, UniProt P10636, DEL125-375/DEL395-460/DEL597-597); assay: as above; format: biochemical; conditions: 2-20 µM PHOX15, 24 h, 37 °C, pH 7.4, 200 µg/ml heparin, 1% DMSO
T2 construct: gene MAPT; full-length Tau441, pET-3d, E. coli BL21(DE3)pLysS; anion exchange and phosphocellulose chromatography
T2 sequence (P10636 with tags, fused parts or gaps DEL125-375/DEL395-460/DEL597-597): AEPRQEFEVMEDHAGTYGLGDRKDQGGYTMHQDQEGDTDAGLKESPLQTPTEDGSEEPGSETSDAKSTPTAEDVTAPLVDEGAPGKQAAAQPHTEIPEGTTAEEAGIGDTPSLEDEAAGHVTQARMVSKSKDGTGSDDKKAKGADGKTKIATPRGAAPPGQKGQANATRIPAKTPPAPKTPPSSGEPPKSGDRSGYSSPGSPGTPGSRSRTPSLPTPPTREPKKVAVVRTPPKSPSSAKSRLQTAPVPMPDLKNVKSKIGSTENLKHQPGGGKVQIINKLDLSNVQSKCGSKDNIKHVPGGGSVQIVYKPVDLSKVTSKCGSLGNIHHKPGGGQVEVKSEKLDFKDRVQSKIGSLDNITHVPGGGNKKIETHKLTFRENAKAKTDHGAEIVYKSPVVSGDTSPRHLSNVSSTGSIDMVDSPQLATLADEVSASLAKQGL

[3] = molecular target: T3, PAGFP-Tau / PAGFP-TauΔK280 (Homo sapiens, UniProt P10636, DEL125-375/DEL395-460/DEL597-597); assay: FDAP live-cell imaging, effective diffusion constant of tau (restored microtubule binding); format: cell-based
T3 construct: gene MAPT
T3 sequence (P10636 with tags, fused parts or gaps DEL125-375/DEL395-460/DEL597-597): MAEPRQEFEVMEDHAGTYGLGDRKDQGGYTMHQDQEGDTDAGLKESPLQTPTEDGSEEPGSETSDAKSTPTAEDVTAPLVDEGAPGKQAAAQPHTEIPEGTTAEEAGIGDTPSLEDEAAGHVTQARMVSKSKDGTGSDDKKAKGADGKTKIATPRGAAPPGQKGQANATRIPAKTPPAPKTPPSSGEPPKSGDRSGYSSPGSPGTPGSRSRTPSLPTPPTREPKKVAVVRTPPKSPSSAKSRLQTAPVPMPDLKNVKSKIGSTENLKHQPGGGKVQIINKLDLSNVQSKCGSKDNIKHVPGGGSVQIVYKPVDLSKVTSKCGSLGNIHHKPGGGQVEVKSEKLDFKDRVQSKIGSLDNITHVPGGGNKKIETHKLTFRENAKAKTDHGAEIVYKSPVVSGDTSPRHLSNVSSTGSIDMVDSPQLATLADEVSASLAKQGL
Excerpt: FDAP live-cell imaging, effective diffusion constant of tau (restored microtubule binding) on PAGFP-Tau / PAGFP-TauΔK280 | IC50 value of the activity of PHOX15 to restore microtubule binding of TauΔK280, obtaining

- % reduction of filament formation [2]: ~ 20%
- IC50 [3]: 14 µM
SMILES: O=C(Nc1ccccc1)c1coc(-c2ccc(O)cc2O)n1 [PHOX15, 2-(2,4-dihydroxyphenyl)-N-phenyloxazole-4-carboxamide]
- fraction of aggregated tau [1]: PHOX15 decreases aggregation of recombinant TauΔK280 and human wild-type tau (Tau) in vitro
